In patent US12509447B2, “Small molecule compound” (Technoderma Medicines Pte Ltd, priority 2019, dated 2025):

Assays:
Format in all cases: biochemical
Tyk2 = Tyk2 (Homo sapiens, UniProt P29597); experiment: Inhibition of JAK kinase activity, EZ Reader microfluidic phosphorylation of peptide substrate: Tyk2; settings: Tyk2 kinase 1 nM; highest final concentration 10 μM, 1:3 serial dilution, 8 points, duplicates
In short: (§1)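 Microfluidic mobility-shift assay reading fluorescent peptide substrate and product; kinases at 20 nM (JAK1) or 1 nM (JAK2, JAK3, Tyk2) in pH 7.4 HEPES with 10 mM MgCl2, run at room temperature to 20-30% conversion, then stopped with EDTA. Compounds tested from 10 μM top, 1:3 over 8 points in duplicate; IC50 fitted from % conversion.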

JAK1 = JAK1 (Homo sapiens, UniProt P23458); experiment: Inhibition of JAK kinase activity, EZ Reader microfluidic phosphorylation of peptide substrate: JAK1; settings: JAK1 kinase 20 nM; highest final concentration 10 μM, 1:3 serial dilution, 8 points, duplicates
Chain of JAK1 (P23458 whole entry): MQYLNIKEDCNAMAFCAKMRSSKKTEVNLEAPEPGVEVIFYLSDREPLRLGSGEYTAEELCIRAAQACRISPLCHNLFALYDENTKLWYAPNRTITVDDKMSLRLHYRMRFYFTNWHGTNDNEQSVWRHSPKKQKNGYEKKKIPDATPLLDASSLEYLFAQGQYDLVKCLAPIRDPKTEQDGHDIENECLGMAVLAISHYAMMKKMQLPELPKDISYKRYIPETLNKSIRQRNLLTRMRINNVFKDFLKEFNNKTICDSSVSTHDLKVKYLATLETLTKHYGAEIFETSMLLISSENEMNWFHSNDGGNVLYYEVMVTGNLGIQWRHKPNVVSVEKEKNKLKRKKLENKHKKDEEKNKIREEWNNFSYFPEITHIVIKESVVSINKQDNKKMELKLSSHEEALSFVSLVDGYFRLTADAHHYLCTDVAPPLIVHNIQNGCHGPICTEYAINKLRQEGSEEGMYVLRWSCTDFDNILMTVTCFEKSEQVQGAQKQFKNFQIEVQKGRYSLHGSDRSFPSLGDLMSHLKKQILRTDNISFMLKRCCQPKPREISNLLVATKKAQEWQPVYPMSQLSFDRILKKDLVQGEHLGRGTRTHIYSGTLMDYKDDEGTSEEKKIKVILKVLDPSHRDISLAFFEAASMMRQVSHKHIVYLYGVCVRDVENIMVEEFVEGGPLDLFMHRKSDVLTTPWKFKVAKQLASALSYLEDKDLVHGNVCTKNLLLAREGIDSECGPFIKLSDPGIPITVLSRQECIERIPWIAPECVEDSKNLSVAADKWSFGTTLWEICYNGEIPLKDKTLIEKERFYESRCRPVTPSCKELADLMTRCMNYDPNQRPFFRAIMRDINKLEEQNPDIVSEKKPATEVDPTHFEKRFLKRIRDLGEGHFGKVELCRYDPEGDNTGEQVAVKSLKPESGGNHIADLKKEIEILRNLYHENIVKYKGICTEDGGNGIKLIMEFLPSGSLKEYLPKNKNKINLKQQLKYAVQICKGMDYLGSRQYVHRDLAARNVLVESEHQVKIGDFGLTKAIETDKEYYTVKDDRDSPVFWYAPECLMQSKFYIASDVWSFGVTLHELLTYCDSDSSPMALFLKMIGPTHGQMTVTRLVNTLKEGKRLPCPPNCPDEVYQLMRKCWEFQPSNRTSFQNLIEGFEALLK
In short: as §1

JAK2 = JAK2 (Homo sapiens, UniProt O60674); experiment: Inhibition of JAK kinase activity, EZ Reader microfluidic phosphorylation of peptide substrate: JAK2; settings: JAK2 kinase 1 nM; highest final concentration 10 μM, 1:3 serial dilution, 8 points, duplicates
Chain of JAK2 (O60674 whole entry): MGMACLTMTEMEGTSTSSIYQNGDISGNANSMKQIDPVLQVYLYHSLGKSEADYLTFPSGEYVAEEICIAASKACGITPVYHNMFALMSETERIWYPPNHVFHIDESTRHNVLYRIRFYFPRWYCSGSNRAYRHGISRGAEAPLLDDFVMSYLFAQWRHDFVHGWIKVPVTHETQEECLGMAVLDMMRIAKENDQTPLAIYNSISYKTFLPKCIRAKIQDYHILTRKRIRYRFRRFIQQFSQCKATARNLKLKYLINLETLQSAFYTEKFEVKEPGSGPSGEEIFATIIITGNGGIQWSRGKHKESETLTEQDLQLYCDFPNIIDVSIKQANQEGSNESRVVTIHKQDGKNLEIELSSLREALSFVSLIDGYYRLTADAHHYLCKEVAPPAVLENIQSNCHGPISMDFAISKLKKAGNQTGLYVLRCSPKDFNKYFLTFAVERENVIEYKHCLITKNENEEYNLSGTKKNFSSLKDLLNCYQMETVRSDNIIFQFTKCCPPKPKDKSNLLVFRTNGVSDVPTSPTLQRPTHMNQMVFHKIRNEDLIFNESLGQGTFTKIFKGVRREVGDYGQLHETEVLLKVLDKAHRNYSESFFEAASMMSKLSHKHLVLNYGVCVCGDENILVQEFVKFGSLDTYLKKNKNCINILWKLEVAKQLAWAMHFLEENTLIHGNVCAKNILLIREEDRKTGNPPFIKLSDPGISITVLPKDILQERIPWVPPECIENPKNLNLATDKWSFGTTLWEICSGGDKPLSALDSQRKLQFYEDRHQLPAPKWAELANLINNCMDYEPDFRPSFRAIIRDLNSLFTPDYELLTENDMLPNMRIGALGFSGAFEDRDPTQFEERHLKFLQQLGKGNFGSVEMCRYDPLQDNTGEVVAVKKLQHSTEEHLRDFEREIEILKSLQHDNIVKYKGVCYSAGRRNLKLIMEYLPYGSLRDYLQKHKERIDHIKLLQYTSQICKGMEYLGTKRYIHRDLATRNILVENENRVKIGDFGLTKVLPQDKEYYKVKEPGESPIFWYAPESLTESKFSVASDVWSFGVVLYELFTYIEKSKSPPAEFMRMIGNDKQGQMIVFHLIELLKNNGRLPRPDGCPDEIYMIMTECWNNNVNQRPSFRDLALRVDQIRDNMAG
In short: as §1

JAK3 = biological target: T1, JAK3 (Homo sapiens, UniProt P52333); experiment: Inhibition of JAK kinase activity, EZ Reader microfluidic phosphorylation of peptide substrate: JAK3; settings: JAK3 kinase 1 nM; highest final concentration 10 μM, 1:3 serial dilution, 8 points, duplicates
T1 sequence (P52333 1-1124): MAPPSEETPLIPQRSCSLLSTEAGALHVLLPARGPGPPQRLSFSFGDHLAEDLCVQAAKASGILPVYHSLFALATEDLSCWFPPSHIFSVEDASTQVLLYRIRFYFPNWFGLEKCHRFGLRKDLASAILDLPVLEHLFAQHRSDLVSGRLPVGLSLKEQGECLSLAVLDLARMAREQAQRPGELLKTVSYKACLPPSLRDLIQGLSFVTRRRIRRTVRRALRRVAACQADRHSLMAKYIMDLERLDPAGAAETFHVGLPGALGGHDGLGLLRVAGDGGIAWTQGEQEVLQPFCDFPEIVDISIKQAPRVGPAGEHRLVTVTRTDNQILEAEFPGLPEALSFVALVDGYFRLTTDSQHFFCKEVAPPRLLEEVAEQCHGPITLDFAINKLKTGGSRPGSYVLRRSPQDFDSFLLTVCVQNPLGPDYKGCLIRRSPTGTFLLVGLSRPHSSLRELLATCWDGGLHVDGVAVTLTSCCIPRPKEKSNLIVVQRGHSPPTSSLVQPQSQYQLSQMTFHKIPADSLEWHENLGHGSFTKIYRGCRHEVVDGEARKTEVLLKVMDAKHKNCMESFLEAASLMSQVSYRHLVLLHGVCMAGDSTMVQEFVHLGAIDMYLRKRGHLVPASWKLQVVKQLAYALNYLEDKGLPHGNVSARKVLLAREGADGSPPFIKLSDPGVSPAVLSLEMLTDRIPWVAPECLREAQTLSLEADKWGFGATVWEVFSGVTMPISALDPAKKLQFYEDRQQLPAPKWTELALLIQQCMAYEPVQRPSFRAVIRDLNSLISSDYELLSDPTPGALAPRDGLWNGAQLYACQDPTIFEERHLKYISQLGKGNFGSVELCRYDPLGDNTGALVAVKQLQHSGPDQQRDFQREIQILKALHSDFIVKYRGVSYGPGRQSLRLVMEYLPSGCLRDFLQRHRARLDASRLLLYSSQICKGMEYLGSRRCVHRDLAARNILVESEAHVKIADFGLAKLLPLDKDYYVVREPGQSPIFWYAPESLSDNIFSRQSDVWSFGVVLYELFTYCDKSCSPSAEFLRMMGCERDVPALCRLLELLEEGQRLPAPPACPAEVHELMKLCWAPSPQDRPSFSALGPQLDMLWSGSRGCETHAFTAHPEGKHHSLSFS
In short: as §1

Chain of Tyk2 (P29597 whole entry): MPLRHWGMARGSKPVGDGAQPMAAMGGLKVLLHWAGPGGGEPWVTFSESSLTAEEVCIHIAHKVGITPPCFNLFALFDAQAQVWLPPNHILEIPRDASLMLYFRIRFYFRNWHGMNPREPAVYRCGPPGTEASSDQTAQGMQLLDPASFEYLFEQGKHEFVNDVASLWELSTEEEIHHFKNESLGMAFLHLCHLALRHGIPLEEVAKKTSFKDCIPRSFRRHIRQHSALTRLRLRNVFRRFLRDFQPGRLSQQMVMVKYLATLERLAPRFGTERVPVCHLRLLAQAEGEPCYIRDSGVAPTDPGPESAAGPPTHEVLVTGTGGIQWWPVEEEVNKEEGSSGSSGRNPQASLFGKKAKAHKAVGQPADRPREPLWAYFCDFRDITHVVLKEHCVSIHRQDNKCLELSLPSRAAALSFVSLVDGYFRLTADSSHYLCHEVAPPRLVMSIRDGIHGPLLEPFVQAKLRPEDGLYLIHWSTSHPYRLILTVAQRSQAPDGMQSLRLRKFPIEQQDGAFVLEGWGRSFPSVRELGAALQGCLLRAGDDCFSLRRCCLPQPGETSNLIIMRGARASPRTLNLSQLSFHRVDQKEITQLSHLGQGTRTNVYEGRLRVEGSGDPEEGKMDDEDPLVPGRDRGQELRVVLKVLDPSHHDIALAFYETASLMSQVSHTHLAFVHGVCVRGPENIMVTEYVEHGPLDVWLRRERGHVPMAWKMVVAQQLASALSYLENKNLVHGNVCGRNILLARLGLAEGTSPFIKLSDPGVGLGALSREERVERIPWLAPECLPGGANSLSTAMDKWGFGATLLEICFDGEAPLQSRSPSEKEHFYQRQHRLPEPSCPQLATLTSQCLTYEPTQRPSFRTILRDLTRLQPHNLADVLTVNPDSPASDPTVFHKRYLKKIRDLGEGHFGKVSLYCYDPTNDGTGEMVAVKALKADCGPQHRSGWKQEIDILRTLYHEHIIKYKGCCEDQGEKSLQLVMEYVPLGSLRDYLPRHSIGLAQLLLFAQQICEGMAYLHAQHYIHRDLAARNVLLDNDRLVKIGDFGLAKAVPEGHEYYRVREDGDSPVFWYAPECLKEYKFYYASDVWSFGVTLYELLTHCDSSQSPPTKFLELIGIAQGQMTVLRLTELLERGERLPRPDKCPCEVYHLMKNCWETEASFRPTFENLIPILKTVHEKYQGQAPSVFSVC

IC50 (Tyk2): 0.1 to 1 µM
IC50 (JAK1): 0.1 to 1 µM
IC50 (JAK2): 0.1 to 1 µM
IC50 (JAK3): 1 to 10 µM
Compound: Cn1cc(Nc2nccc(-c3ccn(C4(CC#N)CN(S(=O)(=O)C5CCOCC5)C4)c3)n2)cn1 [TDM-180855, 2-(3-(3-(2-((1-methyl-1H-pyrazol-4-yl)amino)pyrimidin-4-yl)-1H-pyrrol-1-yl)-1-((tetrahydro-2H-pyran-4-yl)sulfonyl)azetidin-3-yl)acetonitrile]
